One may read the IC50 as the concentration that gives 50% inhibition.

Mcl-1 protein, sequence (Q07820 whole entry, species assumed): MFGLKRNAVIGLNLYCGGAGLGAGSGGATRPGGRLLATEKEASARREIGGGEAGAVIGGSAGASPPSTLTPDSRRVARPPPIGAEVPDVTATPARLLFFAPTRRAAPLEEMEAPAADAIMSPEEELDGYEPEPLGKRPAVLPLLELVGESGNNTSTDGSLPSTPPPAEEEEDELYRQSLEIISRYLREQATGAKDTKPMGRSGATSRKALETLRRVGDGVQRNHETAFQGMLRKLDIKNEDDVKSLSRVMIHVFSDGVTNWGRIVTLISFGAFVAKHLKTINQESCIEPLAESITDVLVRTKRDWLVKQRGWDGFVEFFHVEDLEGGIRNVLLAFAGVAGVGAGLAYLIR

The target in one test is GST-Bcl-2 protein (Homo sapiens, UniProt P10415). As to the kind of experiment: Fluorescence polarization assay, competition with FAM-Bid peptide for Bcl-2. Particulars: GST-Bcl-2 40 nM, FAM-Bid 5 nM, 4 hours of incubation, read-out: Bcl-2 binding constants. The procedure: (§1) A Bid BH3 peptide (amino acids: 79-99: […]) having 21 amino acids was synthesized and marked with 6-carboxyfluorescein N-succinimidyl ester (FAM) as fluorescent tag (FAM-Bid) at the N-terminal. The reaction system used in the competitive binding experiment was GST-Bcl-2 protein (40 nM) or Mcl-1 protein, which was dissolved in the reaction buffer (100 mM K3PO4, pH 7.5; 100 μg/ml bovine γ albumin; 0.02% sodium azide) together with FAM-Bid polypeptide (5 nM). In a 96-well plate, 100 µL of the reaction system was added into each well. Then 1 μL different concentration of compound 13 mother solution to be detected dissolved in DMSO was added there into until the final concentration met the experimental design requirements. Meanwhile, two control groups were established, one with the reaction system only containing Bcl-2 or Mcl-1 and FAM-Bid (equivalent to 0% inhibition rate), the other with the reaction system only containing FAM-Bid peptide. After 4 hours of incubation, the 96-well plate was detected by enzyme-labelled meter. The fluorescent polarization value (mP) was tested at […]. Ki value was deduced according to calculation formula.
GST-Bcl-2 protein, sequence (P10415 whole entry): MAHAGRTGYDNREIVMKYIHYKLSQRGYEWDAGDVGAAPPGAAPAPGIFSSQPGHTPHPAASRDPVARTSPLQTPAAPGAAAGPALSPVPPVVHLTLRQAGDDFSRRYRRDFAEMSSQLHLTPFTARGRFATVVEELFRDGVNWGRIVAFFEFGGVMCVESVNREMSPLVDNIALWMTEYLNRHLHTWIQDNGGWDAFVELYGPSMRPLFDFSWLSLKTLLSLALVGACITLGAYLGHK
(§2) The BH3 analogous degrees of other 12 compounds were detected by using the experimental method as described above.
On the technique in general: Polarisation of emitted light reports the rotation of a fluorescent probe.
In the case of `CCC(C)c1ccc(Sc2ccc3c4c(cccc24)C2=NC(=O)C(C#N)=C23)cc1` (stereo not shown) [Compound 21, 3-(4-sec-Butyl-phenylsulfanyl)-8-oxo-8H-acenaphtho[1,2-b]pyrrole-9-carbonitrile], the Ki stood at 0.012 µM.

Turning to `CC(C)Cc1ccc(Oc2ccc3c4c(cccc24)C2=C(C#N)C(=O)N=C23)cc1` [Compound 16, 4-(4-Isobutyl-phenoxy)-8-oxo-8H-acenaphtho[1,2-b]pyrrole-9-carbonitrile], the Ki came out at 0.21 µM.

In the next test the target is Mcl-1 protein (Homo sapiens, UniProt Q07820). As to the kind of experiment: Fluorescence polarization assay, competition with FAM-Bid peptide for Mcl-1. The note with it: FAM-Bid 5 nM, 4 hours of incubation, read-out: Mcl-1 binding constants. As to the method:
as §1, §2
Turning to `CCC(C)c1ccc(Sc2ccc3c4c(cccc24)C2=NC(=O)C(C#N)=C23)cc1` (stereo not shown) [Compound 21, 3-(4-sec-Butyl-phenylsulfanyl)-8-oxo-8H-acenaphtho[1,2-b]pyrrole-9-carbonitrile], the Ki was found to be 0.065 µM.

With `CC(C)Cc1ccc(Oc2ccc3c4c(cccc24)C2=C(C#N)C(=O)N=C23)cc1` [Compound 16, 4-(4-Isobutyl-phenoxy)-8-oxo-8H-acenaphtho[1,2-b]pyrrole-9-carbonitrile], the Ki was determined as 0.056 µM.

In the next test the target is T1, interaction between Bcl-2 and Bax (Homo sapiens, UniProt P10415).
T1 construct: expressed in transfected cells; host or cells: Hela cells
T1 sequence (P10415 whole entry): as above
As to the kind of experiment: Intracellular FRET, Bcl-2-CFP/Bax-YFP in Hela cells. Type of test: cell-based.
Details: not given
The gist of the method:
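Hela cells transfected with Bcl-2-CFP and/or Bax-YFP plasmids, then treated with compound in DMSO at 2, 5, 10 and 15 μM for 24 h, or at 40 μM for 3, 6 and 24 h. FRET taken as the 527/475 nm emission ratio at 433 nm excitation, with singly transfected controls set to 1.0. Viability checked by MTT.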
As for `CCC(C)c1ccc(Sc2ccc3c4c(cccc24)C2=NC(=O)C(C#N)=C23)cc1` (stereo not shown) [Compound 21, 3-(4-sec-Butyl-phenylsulfanyl)-8-oxo-8H-acenaphtho[1,2-b]pyrrole-9-carbonitrile], the “Doses (concentration at which the compound interfered with the interaction between Bcl-2 and Bax)” value was 0.2 µM.

On to `CC(C)Cc1ccc(Oc2ccc3c4c(cccc24)C2=C(C#N)C(=O)N=C23)cc1` [Compound 16, 4-(4-Isobutyl-phenoxy)-8-oxo-8H-acenaphtho[1,2-b]pyrrole-9-carbonitrile], for which the “Doses (concentration at which the compound interfered with the interaction between Bcl-2 and Bax)” value came to 0.5 µM.

Staying with this test, now noted: at the concentration given.
`CCC(C)c1ccc(Sc2ccc3c4c(cccc24)C2=NC(=O)C(C#N)=C23)cc1` (stereo not shown) [Compound 21, 3-(4-sec-Butyl-phenylsulfanyl)-8-oxo-8H-acenaphtho[1,2-b]pyrrole-9-carbonitrile]: the “Time (time period after which the interaction between Bcl-2 and Bax was interfered)” value is on record as 2 h.

Take `CC(C)Cc1ccc(Oc2ccc3c4c(cccc24)C2=C(C#N)C(=O)N=C23)cc1` [Compound 16, 4-(4-Isobutyl-phenoxy)-8-oxo-8H-acenaphtho[1,2-b]pyrrole-9-carbonitrile]: the “Time (time period after which the interaction between Bcl-2 and Bax was interfered)” value was determined as 3 h.

Another test deals with BAX shift towards the chondriosome. As to the kind of experiment: Co-localization between Bax protein and chondriosome, Bax-YFP in MCF-7 cells. Type of test: cell-based. The note with it: Bax-YFP/Mito Tracker Red. The essentials:
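MCF-7 cells transfected with Bax-YFP plasmid; 24 h later treated with 10 μM compound for 6 h, then stained 10 min with 50 nM MitoTracker Red CMXRos. Dual-channel laser confocal imaging; Bax mitochondrial localization read as green/red overlap (orange).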
For the compound `CCC(C)c1ccc(Sc2ccc3c4c(cccc24)C2=NC(=O)C(C#N)=C23)cc1` (stereo not shown) [Compound 21, 3-(4-sec-Butyl-phenylsulfanyl)-8-oxo-8H-acenaphtho[1,2-b]pyrrole-9-carbonitrile], the “Doses (concentration at which the compound drove the BAX to shift towards the chondriosome)” value amounted to 2.0 µM.

As for `CC(C)Cc1ccc(Oc2ccc3c4c(cccc24)C2=C(C#N)C(=O)N=C23)cc1` [Compound 16, 4-(4-Isobutyl-phenoxy)-8-oxo-8H-acenaphtho[1,2-b]pyrrole-9-carbonitrile], the “Doses (concentration at which the compound drove the BAX to shift towards the chondriosome)” value turned out to be 4.0 µM.

The same test, now with this note: at the concentration given.
On to `CCC(C)c1ccc(Sc2ccc3c4c(cccc24)C2=NC(=O)C(C#N)=C23)cc1` (stereo not shown) [Compound 21, 3-(4-sec-Butyl-phenylsulfanyl)-8-oxo-8H-acenaphtho[1,2-b]pyrrole-9-carbonitrile], for which the “Time (time period after which BAX shifted towards the chondriosome)” value is 2 h.

Turning to `CC(C)Cc1ccc(Oc2ccc3c4c(cccc24)C2=C(C#N)C(=O)N=C23)cc1` [Compound 16, 4-(4-Isobutyl-phenoxy)-8-oxo-8H-acenaphtho[1,2-b]pyrrole-9-carbonitrile], the “Time (time period after which BAX shifted towards the chondriosome)” value is reported as 3 h.

The next test has as its system MCF-7 cells. As to the kind of experiment: Cytotoxicity by MTT, cells without plasmid transfection. Type of test: cell-based. The note with it: Homo sapiens, MCF7; MCF-7, MTT, 48 hours; read-out: IC50 value in untransfected cells. The essentials: (§3)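 MCF-7 cells transfected with 3 μg BAX/BAK interfering plasmid by calcium phosphate, knockdown checked by Western; untransfected cells run in parallel. Cells treated with a compound concentration gradient for 48 hours; viability by MTT, IC50 derived.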
`CCC(C)c1ccc(Sc2ccc3c4c(cccc24)C2=NC(=O)C(C#N)=C23)cc1` (stereo not shown) [Compound 21, 3-(4-sec-Butyl-phenylsulfanyl)-8-oxo-8H-acenaphtho[1,2-b]pyrrole-9-carbonitrile]: the IC50 is 1.5 µM.

Regarding `CC(C)Cc1ccc(Oc2ccc3c4c(cccc24)C2=C(C#N)C(=O)N=C23)cc1` [Compound 16, 4-(4-Isobutyl-phenoxy)-8-oxo-8H-acenaphtho[1,2-b]pyrrole-9-carbonitrile], the IC50 was found to be 8.5 µM.

In another test the test system is MCF-7 cells transfected with BAX/BAK interfering plasmid. As to the kind of experiment: Cytotoxicity by MTT, cells transfected with BAX/BAK interfering plasmid. Type of test: cell-based. The note with it: Homo sapiens, MCF7; MCF-7 with BAX/BAK interfering plasmid, MTT, 48 hours. The gist of the method: as §3
`CCC(C)c1ccc(Sc2ccc3c4c(cccc24)C2=NC(=O)C(C#N)=C23)cc1` (stereo not shown) [Compound 21, 3-(4-sec-Butyl-phenylsulfanyl)-8-oxo-8H-acenaphtho[1,2-b]pyrrole-9-carbonitrile]: the IC50 was over 50 µM.

`CC(C)Cc1ccc(Oc2ccc3c4c(cccc24)C2=C(C#N)C(=O)N=C23)cc1` [Compound 16, 4-(4-Isobutyl-phenoxy)-8-oxo-8H-acenaphtho[1,2-b]pyrrole-9-carbonitrile] came in with an IC50 of over 50 µM.

For another test, the system named is Bcl-2. As to the kind of experiment: Western blotting, semiquantitative analysis of Bcl-2 protein bands. Type of test: cell-based. Particulars: 6 h; control = 1; tumor cells. The procedure:
(§4) The interest protein was detected by the corresponding antibody. The expression of the interest protein in the cells was detected by horseradish peroxidase-labeled secondary antibodies in combination with ECL coloration method. […] The concentration of the protein bands in the Western images were carried out semiquantitative analysis and normalization treatment with KODAK Gel Logic 1500 imaging system software.
For orientation: A western blot detects proteins with antibodies after separation by electrophoresis.
`CCC(C)c1ccc(Sc2ccc3c4c(cccc24)C2=NC(=O)C(C#N)=C23)cc1` (stereo not shown) [Compound 21, 3-(4-sec-Butyl-phenylsulfanyl)-8-oxo-8H-acenaphtho[1,2-b]pyrrole-9-carbonitrile]: the “concentration of the protein bands (semiquantitative, normalized), Bcl-2” value came to 0.99.

The same test, now with this note: 12 h; control = 1; tumor cells.
On to `CCC(C)c1ccc(Sc2ccc3c4c(cccc24)C2=NC(=O)C(C#N)=C23)cc1` (stereo not shown) [Compound 21, 3-(4-sec-Butyl-phenylsulfanyl)-8-oxo-8H-acenaphtho[1,2-b]pyrrole-9-carbonitrile], for which the “concentration of the protein bands (semiquantitative, normalized), Bcl-2” value is reported as 0.99.

Staying with this test, now noted: 18 h; control = 1; tumor cells.
On to `CCC(C)c1ccc(Sc2ccc3c4c(cccc24)C2=NC(=O)C(C#N)=C23)cc1` (stereo not shown) [Compound 21, 3-(4-sec-Butyl-phenylsulfanyl)-8-oxo-8H-acenaphtho[1,2-b]pyrrole-9-carbonitrile], for which the “concentration of the protein bands (semiquantitative, normalized), Bcl-2” value is 0.49.

Still in this test, the particulars now being: 24 h; control = 1; tumor cells.
Regarding `CCC(C)c1ccc(Sc2ccc3c4c(cccc24)C2=NC(=O)C(C#N)=C23)cc1` (stereo not shown) [Compound 21, 3-(4-sec-Butyl-phenylsulfanyl)-8-oxo-8H-acenaphtho[1,2-b]pyrrole-9-carbonitrile], the “concentration of the protein bands (semiquantitative, normalized), Bcl-2” value was 0.18.

In another test the test system is Mcl-1. As to the kind of experiment: Western blotting, semiquantitative analysis of Mcl-1 protein bands. Particulars: 2 h; control = 1; tumor cells. In kind it is cell-based. As to the method:
as §4
Consider `CCC(C)c1ccc(Sc2ccc3c4c(cccc24)C2=NC(=O)C(C#N)=C23)cc1` (stereo not shown) [Compound 21, 3-(4-sec-Butyl-phenylsulfanyl)-8-oxo-8H-acenaphtho[1,2-b]pyrrole-9-carbonitrile], for which the “concentration of the protein bands (semiquantitative, normalized), Mcl-1” value worked out at 0.59.

Still in this test, the particulars now being: 6 h; control = 1; tumor cells.
Regarding `CCC(C)c1ccc(Sc2ccc3c4c(cccc24)C2=NC(=O)C(C#N)=C23)cc1` (stereo not shown) [Compound 21, 3-(4-sec-Butyl-phenylsulfanyl)-8-oxo-8H-acenaphtho[1,2-b]pyrrole-9-carbonitrile], the “concentration of the protein bands (semiquantitative, normalized), Mcl-1” value was 0.28.

Values taken from patent US8614333B2, “Acenaphtho heterocyclic compound and application thereof” (Dalian University of Technology, priority 2010, dated 2013).
